Tests used:
[1] = rats dosed with radiolabeled MTL; cited from earlier work
plasma proteins = conditions: cited from earlier work
[2] = MTL in tablet form; cited from earlier work
[3] = Clinical study: plasma pharmacokinetics, film vs Singulair tablet; assay type: in vivo; conditions: human, oral, 10 mg, clinical trials of the film, read-out: Tmax of plasma levels
Experimental: We have performed a clinical study of our product to determine the pharmacokinetics of the API loaded into this pharmaceutical platform. […] Singulair® is the marketed formulation of MTL, commonly prescribed for asthma sufferers. It consists of a 10 mg loaded API tablet. The Cmax and Tmax values are listed below, see Table 2. […] These higher values for our films means that we could load less API into the film product and achieve the same Cmax/AUC as the Singulair® reference product. The major difference between the disclosed Intelgenx prototype and Singulair® is the physical state of the MTL once it reaches the stomach. In the Singulair® product, the MTL reaches the stomach in a compressed solid state and thus must solubilize in the stomach under unfavorable conditions. […] The MTL is then transferred to the small intestine via the pylori. Since the MTL is already present as a suspended precipitate, the MTL may more easily reach the small intestine through the leaking pylori. It is well known that the pylori is not leak proof and allows some liquid to flow through even in its closed position. […] In particular, the chewable dosage form is about 1.17 times more bioavailable than the tablet when administered in a fasting subject (compared using available bioavailability date shown in Table 2). […]

CC(C)(O)c1ccccc1CC[C@@H](SCC1(CC(=O)O)CC1)c1cccc(/C=C/c2ccc3ccc(Cl)cc3n2)c1 [MTL, Montelukast]
Distribution across the blood-brain barrier [1]: minimal distribution
Bound to plasma proteins (plasma proteins): more than 99%
Time to maximum concentrations in blood stream [2]: 2 to 4 h
Tmax [3]: 2 to 4 h

Source: patent publication US20260097002A1, “METHOD OF TREATMENT AND DEVICE FOR THE IMPROVED BIOAVAILABILITY OF LEUKOTRIENE RECEPTOR ANTAGONISTS” (INTELGENX CORP., priority 2022, published 2026)
